Patent US20240132503A1, “SALT FORM AND CRYSTAL FORM OF PYRAZOLE SUBSTITUTED IMIDAZO[1,2- A]QUINOXALINE DERIVATIVE” (OCUMENSION THERAPEUTICS (SUZHOU) CO., LTD, priority 2021, published 2024)
Read-outs that look alike come from different tables or passages of the source.

Assay: Pharmacokinetics in plasma and eye tissues of male SD rats after single administration of eye drop
Type: in vivo
Details: for half-life / AUC(0-t) / Cmax / Tmax / AUC(0-inf) / MRT inf / Kp / MRT last: rat, topical or ocular; for AUC(0-inf) / MRT inf: extrapolated; for MRT inf: read-out: MRT0-inf; for Kp: read-out: AUC ratio (tissue AUC0-last/plasma AUC0-last); for MRT last: read-out: MRT0-last
Method: Test purpose: to study pharmacokinetics of the compound in eye tissues of male SD rats after single administration of eye drop
Test material: SD rats (male, 7 to 10 weeks of age, WTLH/SLAC)
Test operation: In this test, 18 male SD rats were provided by Beijing Vital River Laboratory Animal Technology Co., Ltd., and were randomly divided into 6 groups (3 rats/group), and each group of animals were given […] (5 mg/mL for both eyes, 30 μL/eye) of OT202 eye drops during single administration. All animals were not fasted before administration.

[1] = SD (Sprague-Dawley), male SD rats, single eye drop 5 mg/mL, 30 μL/eye, both eyes, Aqueous humor of anterior chamber
[2] = SD (Sprague-Dawley), male SD rats, single eye drop 5 mg/mL, 30 μL/eye, both eyes, Bulbar conjunctiva
[3] = SD (Sprague-Dawley), male SD rats, single eye drop 5 mg/mL, 30 μL/eye, both eyes, Cornea
[4] = SD (Sprague-Dawley), male SD rats, single eye drop 5 mg/mL, 30 μL/eye, both eyes, Plasma
[5] = SD (Sprague-Dawley), male SD rats, single eye drop 5 mg/mL, 30 μL/eye, both eyes, Upper and lower eyelids
[6] = male SD rats, single eye drop 5 mg/mL, 30 μL/eye, both eyes, Aqueous humor of anterior chamber
[7] = male SD rats, single eye drop 5 mg/mL, 30 μL/eye, both eyes, Bulbar conjunctiva
[8] = male SD rats, single eye drop 5 mg/mL, 30 μL/eye, both eyes, Cornea
[9] = male SD rats, single eye drop 5 mg/mL, 30 μL/eye, both eyes, Plasma
[10] = male SD rats, single eye drop 5 mg/mL, 30 μL/eye, both eyes, Upper and lower eyelids

c1cn2c(n1)c(Nc1ccc(N3CCOCC3)cc1)nc1ccc(-c3cn[nH]c3)cc12
half-life (SD (Sprague-Dawley), both eyes, male SD rats, single eye drop 5 mg/mL, 30 μL/eye, Aqueous humor of anterior chamber, sampling range 6-24 h): 12.3 h | half-life (SD (Sprague-Dawley), both eyes, male SD rats, single eye drop 5 mg/mL, 30 μL/eye, Bulbar conjunctiva, sampling range 1-24 h, linear regression coefficient of elimination phase less than 0.9): 5.12 h | half-life (SD (Sprague-Dawley), both eyes, male SD rats, single eye drop 5 mg/mL, 30 μL/eye, Cornea, sampling range 1-24 h): 4.84 h | half-life (SD (Sprague-Dawley), both eyes, male SD rats, single eye drop 5 mg/mL, 30 μL/eye, Plasma, sampling range 1-6 h, linear regression coefficient of elimination phase less than 0.9): 4.8 h | half-life (SD (Sprague-Dawley), both eyes, male SD rats, single eye drop 5 mg/mL, 30 μL/eye, Upper and lower eyelids, sampling range 1-24 h): 9.45 h | AUC(0-t) [1]: 0.657 µM·h | Cmax [1]: 560 nM | Tmax [1]: 0.5 h | AUC(0-inf) [1]: 0.711 µM·h | AUC(0-t) [2]: 15.5 µM·h | Cmax [2]: 4510 nM | Tmax [2]: 0.5 h | AUC(0-inf) [2]: 16.4 µM·h | AUC(0-t) [3]: 2.53 µM·h | Cmax [3]: 1590 nM | Tmax [3]: 0.5 h | AUC(0-t) [4]: 0.00532 µM·h | Cmax [4]: 1.23 nM | Tmax [4]: 1 h | AUC(0-inf) [4]: 0.00956 µM·h | AUC(0-t) [5]: 65.5 µM·h | Cmax [5]: 10400 nM | Tmax [5]: 0.5 h | pharmacokinetic features, including eye-to-blood ratio, tissue exposure (conclusion in words): good pharmacokinetic features | AUC0-inf/AUC0-last (%) [6]: 108% | Tlast [6]: 24.0 h | AUC0-inf/AUC0-last (%) [7]: 106% | Tlast [7]: 24.0 h | AUC0-inf/AUC0-last (%) [8]: 102% | Tlast [8]: 24.0 h | AUC0-inf/AUC0-last (%) [9]: 180% | Tlast [9]: 6.00 h | AUC0-inf/AUC0-last (%) [10]: 122% | AUC ratio (tissue AUC0-last/plasma AUC0-last) [10]: 12300 | Tlast [10]: 24.0 h | MRT inf [6]: 6.27 h | Kp [6]: 123 | MRT last [6]: 3.35 h | MRT inf [7]: 6.73 h | Kp [7]: 2910 | MRT last [7]: 5.28 h | AUC(0-inf) [8]: 2.59 µM·h | MRT inf [8]: 5.74 h | Kp [8]: 476 | MRT last [8]: 5.05 h | MRT inf [9]: 7.39 h | MRT last [9]: 2.98 h | AUC(0-inf) [10]: 80 µM·h | MRT inf [10]: 13.7 h | MRT last [10]: 8.4 h
